Experimental data: US12157739B2, “Hypoxanthine compounds” (KISSEI PHARMACEUTICAL CO., LTD., priority 2018, dated 2024)
pIC50: −log10 of the molar value. Like-named read-outs stand apart in the source and are kept apart here.

Assays:
[1] = Rat PK study: concentration of compounds in large intestine tissue and plasma; assay type: in vivo; details: male, 3 mg/kg oral, non-fasted SD rats; for Kp at 8 h: large intestine tissue / plasma, read-out: C/P: ratio of Colon and Plasma; for Cmax: read-out: Cmax: maximum plasma concentration
Procedure: Test compounds (3 mg/kg/5 mL) prepared by 0.05% methylcellulose were orally administered to non-fasted rats (SD, 8-weeks-old, male, Japan SLC). Blood samples were collected from jugular vein at 0.25, 0.5, 1, 2, 4, 6 and 8 hours after the administration. Laparotomy was performed under isoflurane anesthesia and large intestine was isolated. Collected distal large intestine (about 5 cm) was cut open, and then the large intestine was washed with saline on a dish. After washing, the large intestine was minced by a small scissors. About 150 mg thereof was moved to tube. To the tube was added 100 μL of saline, the mixture was homogenized using shake master (1000 rpm×30 minutes). Samples were prepared by the addition with quadruple volume of saline as final volume. The concentrations of the test compound in large intestine tissue and plasma were measured through a quantitative analysis using liquid chromatography-mass spectrometry (LC/MS).
• Cmax: maximum plasma concentration of test compounds in the case of oral administration (ng/mL) • AUC: area under the plasma test compound concentration-time curve (ng*min/mL) • Plasma: plasma test compound concentration after 8 hours (ng/ml) • Colon: concentrations of the test compound in large intestine tissue after 8 hours (ng/g) • C/P: ratio of the above Colon and Plasma

[2] = as above; assay type: in vivo; details: male, plasma, 3 mg/kg oral, non-fasted SD rats, read-out: AUC: area under the plasma test compound concentration-time curve (converted)
[3] = target: human PHD2184-418 (Homo sapiens (Human), UniProt Q9GZT9); assay: PHD2 inhibitory test (fluorescence polarization); assay type: binding; details: human PHD2184-418, FITC-labeled HIF-1α556-574 substrate, 2 μM 2-oxoglutarate, 37° C. 60 minutes
Procedure: (1) Expression and Preparation of Human PHD2184-418
Human PHD2184-418 containing amino acid residues 184 to 418 of the protein represented by CAC42509 (GenBank accession ID) was expressed and prepared by the following method.
An expression construct of human PHD2184-418 containing N-terminal histidine tag was introduced into pET-30a (+) vector, and the sequence was confirmed. This vector was introduced into BL21 (DE3) strain and cultured at 37° C. in LB medium containing antibiotics. After culturing, a cell lysis solution was added to the cells, and then the cells were disrupted by sonication. The disrupted suspension was centrifuged and the supernatant was purified by Ni column to give human PHD2184-418.
Human HIF-1α556-574 (FITC-labeled HIF-1α556-574), containing N-terminal FITC-Ahx, containing amino acid residues 556 to 574 (partial peptide) of HIF-1α was used as a substrate. Using FITC-labeled HIF-1α556-574, the competitive inhibition between 2-oxoglutarate and test compounds (PHD inhibitor) was evaluated based on the change in fluorescence polarization by the following method.
An enzyme (human PHD2184-418) and the substrate were diluted with an assay buffer (pH 7.4) containing 10 mM HEPES, 150 mM NaCl, 10 μM MnCl2-4H2O, 2 μM 2-oxoglutarate and 0.05% Tween-20. Test compounds were diluted with DMSO. Test compounds and human PHD2184-418 was added to the 384-well plate (Corning, black, opaque bottom) in advance. The reaction was started by the addition of FITC-labeled HIF-1α556-574. After incubating at 37° C. for 60 minutes, fluorescence polarization (excitation wavelength: 470 nm, fluorescence wavelength: 530 nm) was measured by PHERAstar FSX (BMG Labtech). Fluorescence polarization of each well was measured, and human PHD2 binding inhibitory activity of test compounds was calculated based on the value of test compound-free group.

[4] = test system: TNBS induced colitis model rat; assay: Therapeutic effect in TNBS induced colitis model rat (intestinal permeability of FITC); assay type: in vivo; details: po, 72 h, SD rats, mean, read-out: Inhibition (%): suppressive rate on the intestinal permeability; for inhibition in vivo at 3 mg/kg: 3 mg/kg orally once a day for 3 days
Procedure: SD rats: 8-weeks-old male SLC (Japan SLC) were used. Under pentobarbital anesthesia, 300 μL of TNBS (28 mg/mL) which was prepared by 50% ethanol was administered at a point 8 cm from anus in large intestine to cause inflammation. To the solvent-treated group was administrated 300 μL of 50% ethanol. Animals were fasted for 48 hours prior to administration of TNBS. Test compounds (3 mg/kg or 10 mg/kg) prepared by 0.05% methylcellulose solution were orally administered once a day from next day, and it was administered for a total of 3 days. After administering for 3 days, 50 mg/kg FITC was orally administered at 4 hours after administration. Blood samples were collected from jugular vein under isoflurane anesthesia after 4 hours. The serum was centrifuged and fluorescence intensity was detected by PHERAstar FSX (BMG Labtech) to measure the concentration of FITC permeating into circulating blood through the mesentery. The suppressive rate on the intestinal permeability of test compounds was calculated based on the value of test compounds-free group as 0 and the value of TNBS-untreated group as 100.

[5] = large intestine tissue (distal, colon), read-out: Colon: concentration in large intestine tissue after 8 hours
[6] = plasma, read-out: Plasma: plasma test compound concentration after 8 hours

human PHD2184-418, sequence (Q9GZT9 184-418): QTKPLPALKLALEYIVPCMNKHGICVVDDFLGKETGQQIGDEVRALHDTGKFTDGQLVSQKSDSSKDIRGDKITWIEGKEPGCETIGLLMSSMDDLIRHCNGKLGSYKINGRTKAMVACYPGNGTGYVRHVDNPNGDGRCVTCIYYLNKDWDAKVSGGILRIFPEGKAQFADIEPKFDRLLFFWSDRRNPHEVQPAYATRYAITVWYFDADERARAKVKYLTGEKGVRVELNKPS

O=C(O)c1ccc(Cn2cnc3nc(-n4cc(C(=O)O)cn4)[nH]c(=O)c32)cc1 [Example 12, 1-(7-(4-Carboxybenzyl)-6-oxo-6,7-dihydro-1H-purin-2-yl)-1H-pyrazole-4-carboxylic acid]
concentration at 8 h [1, 5]: 67 ng/g
Kp at 8 h [1]: 34
concentration at 8 h [1, 6]: 2 ng/mL
Cmax ([1]; plasma): 16 ng/mL
AUC [2]: 49.9 ng·h/mL
pIC50 [3]: 6.21
inhibition in vivo at 3 mg/kg [4]: 78%

Cl.O=C(O)c1cnn(-c2nc3ncn(Cc4ccc(OCCN5CCOCC5)cc4)c3c(=O)[nH]2)c1 [Example 75, 1-(7-(4-(2-Morpholinoethoxy)benzyl)-6-oxo-6,7-dihydro-1H-purin-2-yl)-1H-pyrazole-4-carboxylic acid hydrochloride]
concentration at 8 h [1, 5]: 323 ng/g
Kp at 8 h [1]: > 323
concentration at 8 h [1, 6]: 1 ng/mL
Cmax ([1]; plasma): 4 ng/mL
AUC [2]: 12.9 ng·h/mL
pIC50 [3]: 6.38
inhibition in vivo at 3 mg/kg [4]: 80%

O=C(O)c1cnn(-c2nc3ncn(COCc4ccccc4)c3c(=O)[nH]2)c1 [Example 2, 1-(7-((Benzyloxy)methyl)-6-oxo-6,7-dihydro-1H-purin-2-yl)-1H-pyrazole-4-carboxylic acid]
concentration at 8 h [1, 5]: 188 ng/g
Kp at 8 h [1]: > 188
concentration at 8 h [1, 6]: < 1 ng/mL
Cmax ([1]; plasma): 3 ng/mL
AUC [2]: 0.833 ng·h/mL
pIC50 [3]: 6.19
inhibition in vivo at 3 mg/kg [4]: 51%

COc1ccc(Cn2cnc3nc(-n4cc(C(=O)O)cn4)[nH]c(=O)c32)cc1 [Example 11, 1-(7-(4-Methoxybenzyl)-6-oxo-6,7-dihydro-1H-purin-2-yl)-1H-pyrazole-4-carboxylic acid]
Cmax ([1]; plasma): 10 ng/mL
AUC [2]: 18.2 ng·h/mL
inhibition in vivo at 3 mg/kg [4]: 83%

CS(=O)(=O)c1ccc(Cn2cnc3nc(-n4cc(C(=O)O)cn4)[nH]c(=O)c32)cc1 [Example 4, 1-(7-(4-(Methylsulfonyl)benzyl)-6-oxo-6,7-dihydro-1H-purin-2-yl)-1H-pyrazole-4-carboxylic acid]
concentration at 8 h [1, 5]: 94 ng/g
Kp at 8 h [1]: 47
concentration at 8 h [1, 6]: 2 ng/mL
Cmax ([1]; plasma): 6 ng/mL
AUC [2]: 29.2 ng·h/mL
pIC50 [3]: 6.28
inhibition in vivo at 3 mg/kg [4]: 66%

COc1ccc(Cn2cnc3c(=O)[nH]c(-n4cc(C(=O)O)cn4)nc32)cc1 [Example 35, 1-(9-(4-Methoxybenzyl)-6-oxo-6,9-dihydro-1H-purin-2-yl)-1H-pyrazole-4-carboxylic acid]
concentration at 8 h [1, 5]: 11 ng/g
Kp at 8 h [1]: > 11
concentration at 8 h [1, 6]: < 1 ng/mL
Cmax ([1]; plasma): < 1 ng/mL
pIC50 [3]: 6.23
inhibition in vivo at 3 mg/kg [4]: 81%

O=C(O)c1cnn(-c2nc3c(ncn3Cc3ccc(O)cc3)c(=O)[nH]2)c1 [Example 29, 1-(9-(4-Hydroxybenzyl)-6-oxo-6,9-dihydro-1H-purin-2-yl)-1H-pyrazole-4-carboxylic acid]
concentration at 8 h [1, 5]: 646 ng/g
Kp at 8 h [1]: > 646
concentration at 8 h [1, 6]: < 1 ng/mL
Cmax ([1]; plasma): < 1 ng/mL
pIC50 [3]: 6.43
inhibition in vivo at 3 mg/kg [4]: 86%

O=C(O)c1cnn(-c2nc3ncn(Cc4ccc(-c5ccccc5)cc4)c3c(=O)[nH]2)c1 [Example 1, 1-(7-([1,1′-Biphenyl]-4-ylmethyl)-6-oxo-6,7-dihydro-1H-purin-2-yl)-1H-pyrazole-4-carboxylic acid]
concentration at 8 h [1, 5]: 109 ng/g
Kp at 8 h [1]: 36
concentration at 8 h [1, 6]: 3 ng/mL
Cmax ([1]; plasma): 11 ng/mL
AUC [2]: 46.3 ng·h/mL
pIC50 [3]: 7.05
inhibition in vivo at 10 mg/kg ([4]; 10 mg/kg orally once a day for 3 days): 54%

O=C(O)c1cnn(-c2nc3ncn(Cc4ccc(O)cc4)c3c(=O)[nH]2)c1 [Example 3, 1-(7-(4-Hydroxybenzyl)-6-oxo-6,7-dihydro-1H-purin-2-yl)-1H-pyrazole-4-carboxylic acid]
concentration at 8 h [1, 5]: 87 ng/g
Kp at 8 h [1]: > 87
concentration at 8 h [1, 6]: < 1 ng/mL
Cmax ([1]; plasma): 6 ng/mL
AUC [2]: 3.27 ng·h/mL
pIC50 [3]: 6.19
inhibition in vivo at 3 mg/kg [4]: 93%
